Experimental data from patent US20220151962A1, “NOVEL INHIBITORS OF HISTONE DEACETYLASE 10” (Deutsches Krebsforschungszentrum, priority 2019, published 2022).
pIC50: −log10 of the molar value.

Columns and labels:
HDAC1 = target: T1, HDAC1 (Homo sapiens, UniProt Q13547); assay: HDAC-Glo I/II assay, HDAC1; assay type: biochemical; details: recombinant human HDAC1, HDAC-Glo; read-out: pIC50 HDAC1 Glo (converted)
T1 construct: purchased BPS Bioscience 50051

HDAC2 = target: T2, HDAC2 (Homo sapiens, UniProt Q92769); assay: HDAC-Glo I/II assay, HDAC2; assay type: biochemical; details: recombinant human HDAC2, HDAC-Glo; read-out: pIC50 HDAC2 Glo (converted)
T2 construct: purchased BPS Bioscience 50002
T2 sequence (Q92769 whole entry): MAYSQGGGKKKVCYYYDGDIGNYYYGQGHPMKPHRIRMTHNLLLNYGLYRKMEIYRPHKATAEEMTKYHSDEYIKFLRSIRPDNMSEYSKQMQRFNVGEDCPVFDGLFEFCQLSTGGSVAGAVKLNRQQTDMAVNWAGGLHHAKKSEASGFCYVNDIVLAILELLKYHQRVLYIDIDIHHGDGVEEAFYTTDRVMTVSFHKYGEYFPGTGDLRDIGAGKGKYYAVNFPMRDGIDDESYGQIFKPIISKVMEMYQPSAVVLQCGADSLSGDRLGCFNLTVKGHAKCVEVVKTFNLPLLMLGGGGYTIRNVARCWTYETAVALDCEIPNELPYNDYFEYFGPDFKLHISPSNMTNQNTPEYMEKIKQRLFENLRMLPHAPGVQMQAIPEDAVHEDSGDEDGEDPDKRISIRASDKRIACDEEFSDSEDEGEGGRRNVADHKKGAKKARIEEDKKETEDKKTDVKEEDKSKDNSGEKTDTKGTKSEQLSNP

HDAC3/NcoR2 complex = target: T3, HDAC3/NcoR2 complex (Homo sapiens, UniProt O15379); assay: HDAC-Glo I/II assay, HDAC3/NcoR2 complex; assay type: biochemical; details: recombinant human HDAC3/NcoR2 complex, read-out: pIC50 HDAC3 Glo (converted)
T3 construct: purchased BPS Bioscience 50003
T3 sequence (O15379 whole entry): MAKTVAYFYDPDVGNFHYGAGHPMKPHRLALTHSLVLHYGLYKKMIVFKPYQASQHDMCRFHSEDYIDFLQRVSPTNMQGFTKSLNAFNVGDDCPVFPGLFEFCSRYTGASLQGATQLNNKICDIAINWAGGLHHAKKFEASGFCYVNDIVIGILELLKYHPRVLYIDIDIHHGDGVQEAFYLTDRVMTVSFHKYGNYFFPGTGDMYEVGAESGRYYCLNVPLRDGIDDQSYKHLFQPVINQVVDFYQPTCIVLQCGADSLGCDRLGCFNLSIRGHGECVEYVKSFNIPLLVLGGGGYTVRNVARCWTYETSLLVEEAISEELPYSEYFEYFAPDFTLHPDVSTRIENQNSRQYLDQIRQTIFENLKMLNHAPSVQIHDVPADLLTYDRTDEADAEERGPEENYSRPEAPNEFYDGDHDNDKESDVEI
T3 sequence (Q9Y618 395-489 partner limits assumed): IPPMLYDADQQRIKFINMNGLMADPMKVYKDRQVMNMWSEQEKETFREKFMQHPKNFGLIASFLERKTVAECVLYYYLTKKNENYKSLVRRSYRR

HDAC6 = target: T4, HDAC6 (Homo sapiens, UniProt Q9UBN7); assay: HDAC-Glo I/II assay, HDAC6; assay type: biochemical; details: recombinant human HDAC6, HDAC-Glo; read-out: pIC50 HDAC6 Glo (converted)
T4 construct: purchased BPS Bioscience 50006
T4 sequence (Q9UBN7 1-1215): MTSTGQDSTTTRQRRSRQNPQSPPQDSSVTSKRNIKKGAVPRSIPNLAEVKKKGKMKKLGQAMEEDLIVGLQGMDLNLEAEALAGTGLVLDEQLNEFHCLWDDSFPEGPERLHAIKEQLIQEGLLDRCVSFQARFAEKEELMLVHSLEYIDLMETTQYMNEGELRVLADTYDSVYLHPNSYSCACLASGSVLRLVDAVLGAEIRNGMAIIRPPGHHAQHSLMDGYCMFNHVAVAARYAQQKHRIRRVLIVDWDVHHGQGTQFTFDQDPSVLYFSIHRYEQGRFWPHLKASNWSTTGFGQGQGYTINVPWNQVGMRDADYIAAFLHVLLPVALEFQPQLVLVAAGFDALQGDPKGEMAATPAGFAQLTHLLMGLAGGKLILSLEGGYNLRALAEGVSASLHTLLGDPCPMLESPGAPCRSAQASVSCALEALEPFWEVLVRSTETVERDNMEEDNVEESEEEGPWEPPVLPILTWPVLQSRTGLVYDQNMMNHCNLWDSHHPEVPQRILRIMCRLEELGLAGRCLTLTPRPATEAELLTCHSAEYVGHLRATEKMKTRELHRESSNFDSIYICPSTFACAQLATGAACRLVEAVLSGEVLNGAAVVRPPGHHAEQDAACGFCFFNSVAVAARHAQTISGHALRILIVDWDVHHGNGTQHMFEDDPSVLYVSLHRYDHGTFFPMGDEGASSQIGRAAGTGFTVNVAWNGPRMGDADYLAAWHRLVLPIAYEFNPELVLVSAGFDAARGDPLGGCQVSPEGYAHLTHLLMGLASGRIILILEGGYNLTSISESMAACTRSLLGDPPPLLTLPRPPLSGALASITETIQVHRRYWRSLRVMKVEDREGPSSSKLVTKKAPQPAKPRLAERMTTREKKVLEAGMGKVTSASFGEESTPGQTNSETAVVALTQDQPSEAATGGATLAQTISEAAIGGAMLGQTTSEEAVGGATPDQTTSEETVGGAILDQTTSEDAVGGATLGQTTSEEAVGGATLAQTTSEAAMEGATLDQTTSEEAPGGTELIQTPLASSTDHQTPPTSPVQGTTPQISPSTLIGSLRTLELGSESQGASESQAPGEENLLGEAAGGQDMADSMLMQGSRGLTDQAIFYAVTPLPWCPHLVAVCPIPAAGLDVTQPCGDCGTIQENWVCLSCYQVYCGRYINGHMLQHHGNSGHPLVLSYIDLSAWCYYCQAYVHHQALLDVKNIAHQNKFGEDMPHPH

TwinStrep-GST-HDAC10 = target: T5, TwinStrep-GST-HDAC10 (Homo sapiens, UniProt Q969S8); assay: HDAC10 TR-FRET assay (Tubastatin-AF647-Tracer displacement); assay type: binding; details: TR-FRET, 60 min at rt; read-out: pIC50 HDAC10 FRET (converted)
T5 construct: made in house; host or cells: Sf21 insect cells (baculovirus, pFastBac1)
T5 sequence (Q969S8 1-669): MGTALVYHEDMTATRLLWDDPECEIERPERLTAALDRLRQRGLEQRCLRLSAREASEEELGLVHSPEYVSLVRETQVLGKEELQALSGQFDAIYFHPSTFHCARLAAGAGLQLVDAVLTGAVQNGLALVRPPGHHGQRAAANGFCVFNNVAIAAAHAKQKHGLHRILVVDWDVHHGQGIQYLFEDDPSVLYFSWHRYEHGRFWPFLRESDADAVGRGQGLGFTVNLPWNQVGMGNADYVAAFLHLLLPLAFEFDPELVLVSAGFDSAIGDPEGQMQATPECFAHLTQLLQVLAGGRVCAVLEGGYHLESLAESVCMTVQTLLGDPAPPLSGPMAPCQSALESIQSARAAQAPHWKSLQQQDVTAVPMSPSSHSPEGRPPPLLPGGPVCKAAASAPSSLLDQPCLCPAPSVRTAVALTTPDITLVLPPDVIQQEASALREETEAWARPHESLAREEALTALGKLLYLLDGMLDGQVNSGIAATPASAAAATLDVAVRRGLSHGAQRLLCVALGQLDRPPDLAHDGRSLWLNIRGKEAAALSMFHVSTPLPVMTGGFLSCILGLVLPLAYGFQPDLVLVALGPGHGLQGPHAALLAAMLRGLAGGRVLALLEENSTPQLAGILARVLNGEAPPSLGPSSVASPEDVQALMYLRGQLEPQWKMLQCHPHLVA

HDAC8 = target: T6, HDAC8 (Homo sapiens, UniProt Q9BY41); assay: HDAC-Glo I/II assay, HDAC8; assay type: biochemical; design: purchased BPS Bioscience 50008; details: recombinant human HDAC8, HDAC-Glo; read-out: pIC50 HDAC8 Glo (converted)
T6 sequence (Q9BY41 1-377): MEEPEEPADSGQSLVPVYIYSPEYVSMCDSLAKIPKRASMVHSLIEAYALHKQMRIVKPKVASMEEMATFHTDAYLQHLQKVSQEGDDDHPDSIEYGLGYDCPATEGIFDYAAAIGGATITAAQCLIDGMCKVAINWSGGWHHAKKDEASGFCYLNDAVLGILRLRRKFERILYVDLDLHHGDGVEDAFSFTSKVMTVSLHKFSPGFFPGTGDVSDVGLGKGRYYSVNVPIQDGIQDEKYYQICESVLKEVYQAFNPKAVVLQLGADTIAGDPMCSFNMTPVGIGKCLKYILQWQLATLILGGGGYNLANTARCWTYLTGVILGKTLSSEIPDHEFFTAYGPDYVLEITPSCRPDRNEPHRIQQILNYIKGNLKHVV

[1] = target: T7, HDAC6 (2nd catalytic domain)-nanoluciferase fusion in HeLa cells (Homo sapiens, UniProt Q9UBN7); assay: BRET intracellular target engagement assay, HDAC6
T7 sequence (Q9UBN7 482-800 limits assumed): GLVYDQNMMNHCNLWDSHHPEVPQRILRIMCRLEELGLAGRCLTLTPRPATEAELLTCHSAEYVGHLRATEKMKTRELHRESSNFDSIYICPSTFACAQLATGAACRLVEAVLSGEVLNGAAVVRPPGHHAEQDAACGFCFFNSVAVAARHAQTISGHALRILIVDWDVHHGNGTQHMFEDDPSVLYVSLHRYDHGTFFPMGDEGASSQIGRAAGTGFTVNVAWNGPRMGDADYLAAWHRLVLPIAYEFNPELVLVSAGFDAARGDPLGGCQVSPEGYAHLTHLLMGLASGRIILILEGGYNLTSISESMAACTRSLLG

[2] = target: T8, HDAC10-nanoluciferase fusion in HeLa cells (Homo sapiens, UniProt Q969S8); assay: BRET intracellular target engagement assay, HDAC10; details: for HDAC10/6 fold selectivity (BRET): HDAC10 over HDAC6, from BRET
T8 sequence (Q969S8 1-669): T5 sequence (Q969S8 1-669)

[3] = Solubility in water (observation during purification); assay type: physicochemical
[4] = Stability on exposure to air (observation); assay type: physicochemical; details: especially in solution

T1 sequence (Q13547 whole entry): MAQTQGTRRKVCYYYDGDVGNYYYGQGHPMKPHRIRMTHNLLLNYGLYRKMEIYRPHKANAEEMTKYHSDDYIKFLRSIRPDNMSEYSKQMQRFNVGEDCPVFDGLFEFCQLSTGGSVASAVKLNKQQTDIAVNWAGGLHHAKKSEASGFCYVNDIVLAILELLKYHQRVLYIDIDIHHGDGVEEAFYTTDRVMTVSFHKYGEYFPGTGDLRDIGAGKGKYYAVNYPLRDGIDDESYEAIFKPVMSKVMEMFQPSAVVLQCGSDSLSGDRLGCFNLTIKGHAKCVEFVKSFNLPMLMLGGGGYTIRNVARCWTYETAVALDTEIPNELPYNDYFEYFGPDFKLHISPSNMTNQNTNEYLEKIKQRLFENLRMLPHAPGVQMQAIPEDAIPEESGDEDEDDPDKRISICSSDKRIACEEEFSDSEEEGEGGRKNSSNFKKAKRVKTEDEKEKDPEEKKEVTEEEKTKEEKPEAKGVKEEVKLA

SMILES	IC50 (HDAC1)	IC50 (HDAC2)	IC50 (HDAC3/NcoR2 complex)	IC50 (HDAC6)	IC50 (TwinStrep-GST-HDAC10)	IC50 (HDAC8)	pIC50 [1]	pIC50 [2]	HDAC10/6 fold selectivity (BRET) [2]	solubility in water [3]	stability when exposed to air [4]
CCCCN(CCCC(=O)NO)CCC(=O)Nc1ccccc1 [DKFZ-717, 4-(Butyl(3-oxo-3-(phenylamino)propyl)amino)-N-hydroxybutanamide]	79.4 µM	> 200 µM	~200 µM	5.01 µM	0.631 µM	7.94 µM	< 4.40	5.80	38 fold	–	–
O=C(CCCN(CCC(=O)Nc1ccccc1)C1CC1)NO [DKFZ-724, 4-(Cyclopropyl(3-oxo-3-(phenylamino)propyl)amino)-N-hydroxybutanamide]	39.8 µM	> 200 µM	126 µM	3.16 µM	0.251 µM	2 µM	< 4.40	6.40	>110 fold	–	–
CN(CCCC(=O)NO)CCNC(=O)c1ccc(/C(N)=N/O)cc1 [DKFZ-750, N-(2-((4-(Hydroxyamino)-4-oxobutyl)(methyl)amino)ethyl)-4-(M-hydroxycarbamimidoyl)benzamide]	15.8 µM	> 100 µM	> 100 µM	6.31 µM	0.02 µM	~25.1 µM	< 4.40	5.70	>21 fold	–	–
O=C(CC1CN(CCC(=O)Nc2ccccc2)C1)NO [DKFZ-770, 3-(3-(2-(Hydroxyamino)-2-oxoethyl)azetidin-1-yl)-N-phenylpropanamide]	50.1 µM	79.4 µM	> 100 µM	6.31 µM	0.158 µM	20 µM	< 4.40	5.70	>20 fold	–	–
C[N+](C)(CCCC(=O)[N-]O)CCNC(=O)c1ccccc1 [DKFZ-777, (4-((2-Benzamidoethyl)dimethylammonio)butanoyl)(hydroxy)amide]	> 100 µM	> 100 µM	> 100 µM	> 100 µM	0.398 µM	> 100 µM	< 4.40	4.50	>1 fold	poorly soluble in water	–
CN(CCNC(=O)CS)CCNC(=O)c1ccccc1 [DKFZ-825, N-(2-((2-(2-Mercaptoacetamido)ethyl)(methyl)amino)ethyl)benzamide]	12.6 µM	12.6 µM	> 100 µM	3.98 µM	0.0126 µM	> 100 µM	–	–	–	–	form the disulfide when exposed to air

Continued, values first:

IC50 (HDAC1)	IC50 (HDAC2)	IC50 (HDAC3/NcoR2 complex)	IC50 (HDAC6)	IC50 (TwinStrep-GST-HDAC10)	IC50 (HDAC8)	pIC50 [1]	pIC50 [2]	HDAC10/6 fold selectivity (BRET) [2]	solubility in water [3]	stability when exposed to air [4]	SMILES
25.1 µM	~126 µM	~100 µM	1 µM	2 µM	2.51 µM	5.00	6.30	25 fold	–	–	O=C(CCCN(CCC(=O)Nc1ccccc1)Cc1ccccc1)NO [DKFZ-718, 4-(Benzyl(3-oxo-3-(phenylamino)propyl)amino)-N-hydroxybutanamide]
10 µM	> 100 µM	> 100 µM	6.31 µM	0.00794 µM	~25.1 µM	4.60	7.20	423 fold	–	–	CN(CCCC(=O)NO)CCNC(=O)c1cccc2cn[nH]c12 [DKFZ-757, N-(2-((4-(Hydroxyamino)-4-oxobutyl)(methyl)amino)ethyl)-1H-indazole-7-carboxamide]
6.31 µM	12.6 µM	> 100 µM	2.51 µM	0.00316 µM	1.26 µM	~4.90	7.50	398 fold	–	–	COc1ccc(C(=O)NCCN(C)CCCC(=O)NO)c2ccccc12 [DKFZ-774, N-(2-((4-(Hydroxyamino)-4-oxobutyl)(methyl)amino)ethyl)-4-methoxy-1-naphthamide]
